Where “and” joins values, the source holds several entries; their conditions need not be identical. Identical values can stand only once. Calls of active or inactive are those of the source.
Columns and labels:
Cytochrome P450 2D6 = Cytochrome P450 2D6 (Homo sapiens, UniProt P10635);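 further: CYP2D6 member of a cytochrome P450 panel assay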
[1] = viability of uninfected HEp-2 cells – cell-based, HTS, cytotoxicity control for RSV inhibitor project, dose response (AID 2410); type: functional; settings: human respiratory syncytial virus
[2] = biological target: T1, RNA-binding protein pos-1 (Caenorhabditis elegans, UniProt G5EF15); assay: disruptors of C. elegans POS-1 RNA interaction – biochemical, fluorescence polarization, dose response (AID 1964);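 further: purified POS-1 fused to maltose binding protein made in E. coli; potency of compounds blocking POS-1 binding to fluorescent RNA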
T1 sequence (G5EF15 whole entry): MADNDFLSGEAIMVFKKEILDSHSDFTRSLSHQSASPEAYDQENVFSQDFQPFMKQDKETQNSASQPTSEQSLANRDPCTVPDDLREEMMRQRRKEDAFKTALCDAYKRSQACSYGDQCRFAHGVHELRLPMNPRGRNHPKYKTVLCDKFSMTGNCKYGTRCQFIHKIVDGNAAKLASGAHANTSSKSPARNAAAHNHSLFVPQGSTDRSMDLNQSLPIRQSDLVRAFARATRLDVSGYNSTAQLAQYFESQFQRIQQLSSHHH

[3] = biological target: T2, Zinc finger protein mex-5 (Caenorhabditis elegans, UniProt Q9XUB2); assay: potency of MEX-5 RNA-binding blockers – biochemical, C. elegans, fluorescence polarization, dose response (AID 1960)
T2 sequence (Q9XUB2 whole entry): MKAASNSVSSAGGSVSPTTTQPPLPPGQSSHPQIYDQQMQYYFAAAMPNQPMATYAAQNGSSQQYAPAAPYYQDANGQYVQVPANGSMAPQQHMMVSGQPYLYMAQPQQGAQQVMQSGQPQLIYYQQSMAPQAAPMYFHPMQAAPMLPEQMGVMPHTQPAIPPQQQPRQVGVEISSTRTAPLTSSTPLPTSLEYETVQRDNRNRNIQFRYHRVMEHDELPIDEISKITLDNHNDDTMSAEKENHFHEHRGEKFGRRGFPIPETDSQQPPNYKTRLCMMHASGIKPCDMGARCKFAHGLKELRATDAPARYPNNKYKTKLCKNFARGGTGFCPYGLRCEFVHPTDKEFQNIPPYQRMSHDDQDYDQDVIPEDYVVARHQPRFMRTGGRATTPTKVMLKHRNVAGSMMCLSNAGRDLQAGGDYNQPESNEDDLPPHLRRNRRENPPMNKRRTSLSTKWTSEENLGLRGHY

[4] = Luminescence Cell-Based Dose Confirmation HTS to Identify Activators of 5'UTR Stem-Loop Driven Alpha-Synuclein mRNA Translation in H4 Neuroglioblastoma Cells. [Related pubchem assays: 1829 (Project Summary), 1814 (Primary HTS)]; type: functional
[5] = Luminescence Cell-Based Dose Response HTS to Identify Activators of Luciferase Translation or Activity in H4 […] Cells. [Related pubchem assays: 1829 (Project Summary), 1814 (Primary HTS)]; type: functional
H4 = assay: Luminescence Cell-Based Dose Response HTS to Identify Activators of 5'UTR Stem-Loop Driven Prion Protein mRNA Translation in H4 Neuroglioblastoma Cells. [Related pubchem assays: 1829 (Project Summary), 1814 (Primary HTS)]; type: functional; settings: Homo sapiens
Cytochrome P450 2C19 = Cytochrome P450 2C19 (Homo sapiens, UniProt P33261); assay: Cytochrome panel assay with activity outcomes. Panel member name: p450-cyp2c19 Compounds with AC50 equal or less than 10 uM are considered active; type: functional; settings: read-out: AC50
Cytochrome P450 1A2 = biological target: T3, Cytochrome P450 1A2 (Homo sapiens, UniProt P05177);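 further: PubChem cytochrome P450 panel assay, CYP1A2 panel member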
T3 sequence (P05177 whole entry): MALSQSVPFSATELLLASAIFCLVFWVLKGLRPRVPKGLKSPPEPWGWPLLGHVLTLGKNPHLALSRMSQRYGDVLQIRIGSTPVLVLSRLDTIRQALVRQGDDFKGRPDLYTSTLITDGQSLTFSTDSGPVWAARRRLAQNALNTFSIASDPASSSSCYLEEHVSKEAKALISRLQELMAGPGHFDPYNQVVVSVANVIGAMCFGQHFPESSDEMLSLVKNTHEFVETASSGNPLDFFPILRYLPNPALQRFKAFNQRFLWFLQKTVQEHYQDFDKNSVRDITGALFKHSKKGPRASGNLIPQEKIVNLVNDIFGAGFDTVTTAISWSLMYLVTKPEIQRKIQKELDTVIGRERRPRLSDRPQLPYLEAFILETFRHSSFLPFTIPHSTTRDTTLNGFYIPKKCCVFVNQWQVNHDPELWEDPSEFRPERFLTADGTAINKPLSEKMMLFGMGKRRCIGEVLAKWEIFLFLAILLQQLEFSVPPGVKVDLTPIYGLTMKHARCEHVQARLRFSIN

Cytochrome P450 3A4 = Cytochrome P450 3A4 (Homo sapiens, UniProt P08684);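 further: CYP3A4 tested as one member of a cytochrome P450 panel screen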
Cytochrome P450 2C9 = Cytochrome P450 2C9 (Homo sapiens, UniProt P11712)
[6] = luciferase reporter signal suppression in cells – H4 neuroglioma cells, luminescence, dose response (AID 1990); type: functional, cell-based
[7] = alpha-synuclein stem-loop luciferase translation blockers – H4 neuroglioma cells, luminescence, confirmation (AID 1988); type: functional, cell-based

Chain of Cytochrome P450 2C19 (P33261 whole entry): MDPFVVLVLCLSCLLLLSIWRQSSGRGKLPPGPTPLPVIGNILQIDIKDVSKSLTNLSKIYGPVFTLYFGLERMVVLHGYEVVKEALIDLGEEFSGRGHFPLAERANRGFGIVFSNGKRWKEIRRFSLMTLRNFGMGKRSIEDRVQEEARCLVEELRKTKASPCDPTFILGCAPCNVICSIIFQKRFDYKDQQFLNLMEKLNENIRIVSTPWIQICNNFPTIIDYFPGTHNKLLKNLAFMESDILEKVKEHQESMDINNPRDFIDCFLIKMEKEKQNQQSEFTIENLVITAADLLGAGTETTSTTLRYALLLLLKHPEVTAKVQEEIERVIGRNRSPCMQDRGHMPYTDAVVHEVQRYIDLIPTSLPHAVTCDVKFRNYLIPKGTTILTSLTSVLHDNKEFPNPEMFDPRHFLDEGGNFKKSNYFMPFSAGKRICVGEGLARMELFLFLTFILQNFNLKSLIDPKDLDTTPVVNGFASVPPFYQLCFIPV
Chain of Cytochrome P450 2D6 (P10635 whole entry): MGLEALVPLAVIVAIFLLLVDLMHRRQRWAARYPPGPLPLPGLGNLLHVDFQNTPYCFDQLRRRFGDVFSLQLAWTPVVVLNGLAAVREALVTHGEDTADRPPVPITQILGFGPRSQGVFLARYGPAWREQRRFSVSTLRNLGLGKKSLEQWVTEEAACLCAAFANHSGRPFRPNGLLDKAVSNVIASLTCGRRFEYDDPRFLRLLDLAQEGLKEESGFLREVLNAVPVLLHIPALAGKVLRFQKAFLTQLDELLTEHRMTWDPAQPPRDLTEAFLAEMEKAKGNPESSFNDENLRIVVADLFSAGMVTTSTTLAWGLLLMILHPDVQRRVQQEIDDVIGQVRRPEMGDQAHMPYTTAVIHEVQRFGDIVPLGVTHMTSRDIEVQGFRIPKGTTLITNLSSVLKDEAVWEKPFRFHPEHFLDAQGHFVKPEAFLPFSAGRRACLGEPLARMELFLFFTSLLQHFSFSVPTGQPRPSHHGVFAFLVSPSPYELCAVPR
Chain of Cytochrome P450 2C9 (P11712 whole entry): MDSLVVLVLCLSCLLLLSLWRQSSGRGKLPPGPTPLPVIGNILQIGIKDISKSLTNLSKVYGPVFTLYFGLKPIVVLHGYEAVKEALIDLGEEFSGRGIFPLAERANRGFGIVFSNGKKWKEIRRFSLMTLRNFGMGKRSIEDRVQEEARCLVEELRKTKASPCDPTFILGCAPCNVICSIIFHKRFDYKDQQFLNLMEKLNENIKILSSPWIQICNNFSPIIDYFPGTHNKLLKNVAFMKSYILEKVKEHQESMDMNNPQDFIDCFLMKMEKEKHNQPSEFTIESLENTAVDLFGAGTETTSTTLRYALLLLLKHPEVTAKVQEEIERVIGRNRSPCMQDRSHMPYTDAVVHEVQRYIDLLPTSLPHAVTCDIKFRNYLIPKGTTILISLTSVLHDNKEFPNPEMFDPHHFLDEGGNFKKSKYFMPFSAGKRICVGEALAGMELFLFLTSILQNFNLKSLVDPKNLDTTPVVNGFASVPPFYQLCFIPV
Chain of Cytochrome P450 3A4 (P08684 whole entry): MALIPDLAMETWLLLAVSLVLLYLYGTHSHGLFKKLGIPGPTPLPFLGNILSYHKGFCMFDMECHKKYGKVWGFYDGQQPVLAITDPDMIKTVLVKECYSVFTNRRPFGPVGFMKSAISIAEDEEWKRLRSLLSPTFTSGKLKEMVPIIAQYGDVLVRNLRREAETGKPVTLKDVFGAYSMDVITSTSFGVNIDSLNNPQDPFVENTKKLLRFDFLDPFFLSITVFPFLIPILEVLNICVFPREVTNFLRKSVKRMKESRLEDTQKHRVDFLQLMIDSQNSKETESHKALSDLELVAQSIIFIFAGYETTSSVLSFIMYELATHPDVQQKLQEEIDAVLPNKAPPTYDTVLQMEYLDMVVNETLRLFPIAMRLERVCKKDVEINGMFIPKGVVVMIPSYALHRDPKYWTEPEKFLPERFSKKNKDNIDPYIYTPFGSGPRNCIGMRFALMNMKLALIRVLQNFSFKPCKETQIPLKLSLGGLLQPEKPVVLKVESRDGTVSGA

Q: For Cc1ccc(S(=O)(=O)N[C@@H](CCCCN)C(=O)CCl)cc1, which AC50 (Cytochrome P450 2D6) is on record?
A: 25.1 µM (inconclusive)

Q: For Cc1cc(Cl)ccc1Oc1cccc(C(=O)/C(C#N)=C/N(C)C)c1, which CC50 [1] is on record?
A: 29.1 µM (active)

Q: Which results are given for COc1ccc(C=C2C(=O)OC(C)(C)OC2=O)cc1OC?
A: EC50 [2]: > 300 µM (not active); EC50 [3]: > 300 µM (not active)

Q: With C[N+]1(NCC[N@@+]2(C)CCc3ccccc3C2)CCCCC1 as the molecule, how does the AC50 (Cytochrome P450 2D6) read?
A: 1.58 µM (inconclusive)

Q: Which AC50 (Cytochrome P450 2D6) does the source give for COc1ccccc1-c1cncnc1NCc1cccnc1 here?
A: 39.8 µM (inconclusive)

Q: With O/C(=C(\C([S-])=NCc1ccco1)[n+]1ccccc1)c1ccccc1Br as the molecule, how does the EC50 [2] read?
A: > 300 µM (not active)

Q: And the EC50 [3]?
A: 58.4 µM (active)

Q: Which CC50 [1] does the source give for COc1ccc(C(=O)/C=C/c2ccccc2OC)c(OC(=O)c2ccc([N+](=O)[O-])cc2)c1 here?
A: 19.1 µM (active)

Q: What about the EC50 [4] of the same molecule?
A: 17.3 µM (active)

Q: And the EC50 [5]?
A: 23.8 µM (active)

Q: And the EC50 (H4)?
A: 54.1 µM (inconclusive)

Q: For CCCC[C@@H]1C[C@H]1C(NC(=O)c1ccco1)c1ccc(C(=O)OC)cc1 (some centres undefined), which AC50 (Cytochrome P450 2D6) is on record?
A: 25.1 µM (inconclusive)

Q: With Cc1cccc(C)c1NC(=O)/C(C#N)=C/c1cccs1 as the molecule, how does the AC50 (Cytochrome P450 2D6) read?
A: 6.31 µM (inconclusive)

Q: Which AC50 (Cytochrome P450 2C19) does the source give for O=C(C1CCC(=O)N1Cc1ccccc1Cl)N1CCN(c2ccc(F)cc2)CC1 (centres undefined) here?
A: 20 µM (inconclusive)

Q: What about the AC50 (Cytochrome P450 2D6) of the same molecule?
A: 15.8 µM (inconclusive)

Q: What about the AC50 (Cytochrome P450 1A2) of the same molecule?
A: 2.51 µM (inconclusive)

Q: And the AC50 (Cytochrome P450 3A4)?
A: 12.6 µM (inconclusive)

Q: What about the AC50 (Cytochrome P450 2C9) of the same molecule?
A: 25.1 µM (inconclusive)

Q: For Fc1ccc(Cn2nnnc2CN2CCC(n3nnc4cc(C(F)(F)F)ccc43)CC2)cc1, which CC50 [1] is on record?
A: 15 µM (active)

Q: Which EC50 [6] does the source give for O=C(CN1CCOCC1)Nc1cccc(Cl)c1Cl here?
A: > 120 µM (not active)

Q: What about the EC50 [7] of the same molecule?
A: > 120 µM (not active)

Q: With C/C(=N\N=C(/N)SC1CC(=O)N(c2cccc(Cl)c2)C1=O)c1cccs1 (centres undefined) as the molecule, how does the CC50 [1] read?
A: 19.4 µM (active)

Q: Which AC50 (Cytochrome P450 2D6) does the source give for O=C(c1ccco1)N1CCC2(CC1)CCN(c1ccccc1)CC2 here?
A: 25.1 µM (inconclusive)

Q: For Cc1noc(C)c1-c1ccc2ncnc(N(C)Cc3ccco3)c2c1, which AC50 (Cytochrome P450 2D6) is on record?
A: 20 µM (inconclusive)

Q: With C[C@H](NC(C)(C)C)C(=O)c1cccc(Cl)c1 as the molecule, how does the AC50 (Cytochrome P450 2C19) read?
A: 15.8 µM (inconclusive) and 3.16 µM (inconclusive)

Q: What about the AC50 (Cytochrome P450 2D6) of the same molecule?
A: 31.6 µM (inconclusive) and 6.31 µM (inconclusive)

Q: With CCC1(C)CC(CCNS(=O)(=O)c2ccc(C)cc2)(c2ccc(C)cc2)CCO1 (centres undefined) as the molecule, how does the AC50 (Cytochrome P450 2D6) read?
A: 28.2 µM (inconclusive)

Q: With C#CCCCCCCCCCCCCCCCC(=O)O as the molecule, how does the AC50 (Cytochrome P450 2C19) read?
A: 25.1 µM (inconclusive)

Q: What about the AC50 (Cytochrome P450 2D6) of the same molecule?
A: 20 µM (inconclusive)

Q: Which AC50 (Cytochrome P450 2D6) does the source give for CCC(C)C(NC(=O)OCc1ccccc1)C(=O)OCN1C(=O)c2ccccc2C1=O (centres undefined) here?
A: 0.631 µM (inconclusive)

Q: With COc1ccc(NC(=O)CSc2nc(C)c3c(c2C#N)CCCC3)cc1 as the molecule, how does the AC50 (Cytochrome P450 2D6) read?
A: 2.24 µM (inconclusive)

Q: What about the AC50 (Cytochrome P450 2C9) of the same molecule?
A: 8.91 µM (inconclusive)

Q: For C=C1C[C@H]2[C@@H]3C=C(C)C4=CC(=O)CC[C@]4(C)[C@H]3CC[C@]2(C)[C@@]1(OC(C)=O)C(C)=O [MELENGESTROL ACETATE], which CC50 [1] is on record?
A: 26.5 µM (active)

— ChEMBL document CHEMBL1201862, “PubChem BioAssay data set” (2004)
